After the bases stand the sugars from the 5' end (letter, count) and the backbone: PS all phosphorothioate, else s phosphorothioate and o phosphodiester by linkage. Methylation of C is not given here. e = 2'-O-(2-methoxyethyl) (MOE); k = constrained ethyl (cEt); d = 2'-deoxy (DNA); m = 2'-O-methyl
Molecular target: HSD17B13
Conditions: ASO, HepaRG

Sequence | target mRNA inhibition (1 µM) [%] | also measured
GTTGTTAATGTAGTGT (sugars k3 d10 k3, PS) | 77 | target mRNA inhibition (0.02 µM): 0%; target mRNA inhibition (0.078 µM): 18%; target mRNA inhibition (0.313 µM): 42%; target mRNA inhibition (1.25 µM): 67%; target mRNA inhibition (5 µM): 90%
GTTTAACTTTCCTCCG (sugars k3 d10 k3, PS) | 30 | –
GTTTACAAGTAAGAAC (sugars k3 d10 k3, PS) | 42 | –
GTTTAGAAGTCAAACG (sugars k3 d10 k3, PS) | 0 | –
GTTTAGCAATTTAGCA (sugars k3 d10 k3, PS) | 50 | –
GTTTTATAACTGAGCT (sugars k3 d10 k3, PS) | 84 | target mRNA inhibition (0.02 µM): 16%; target mRNA inhibition (0.078 µM): 29%; target mRNA inhibition (0.313 µM): 53%; target mRNA inhibition (1.25 µM): 84%; target mRNA inhibition (5 µM): 85%
GTTTTGATACCAGTTT (sugars k3 d10 k3, PS) | 67 | –
GTTTTGGGCTAATGAA (sugars k3 d9 k3 e1, PS) | 47 | –
GTTTTGGGCTAATGAA (sugars k3 d10 k3, PS) | 54 | –
GTTTTGGGCTAATGAA (sugars kkdddddddddkekek, PS) | 42 | –
GTTTTTCTCTTGACAA (sugars k3 d10 k3, PS) | 59 | –
TAAAATAGAGTCGGTC (sugars kkdddddddddkekek, PS) | 68 | –
TAAACATCTCTGGGAC (sugars k3 d1 m1 d8 k3, PS) | 49 | –
TAAACCCTGGAGCAGC (sugars k3 d10 k3, PS) | 66 | –
TAAACCTTCCCTGTGT (sugars k3 d9 k3 e1, PS) | 23 | –
TAAACCTTCCCTGTGT (sugars k3 d10 k3, PS) | 17 | –
TAAAGCAGGCTACTTT (sugars k3 d10 k3, PS) | 9 | –
TAAAGCTGCCTGCTGA (sugars k3 d10 k3, PS) | 44 | –
TAAAGGTGGGATAAAC (sugars k3 d10 k3, PS) | 0 | –
TAAAGGTTTCTGTTGC (sugars k3 d10 k3, PS) | 66 | target mRNA inhibition (0.02 µM): 0%; target mRNA inhibition (0.078 µM): 9%; target mRNA inhibition (0.313 µM): 32%; target mRNA inhibition (1.25 µM): 67%; target mRNA inhibition (5 µM): 74%
TAAAGTGCTAAGTAGT (sugars k3 d10 k3, PS) | 50 | –
TAACCAATTATATGAG (sugars k3 d10 k3, PS) | 0 | –
TAACTACAAGAGGTTA (sugars k3 d10 k3, PS) | 22 | –
TAACTGAGTTATTCTC (sugars k3 d10 k3, PS) | 41 | –
TAAGATACCCAGGTTG (sugars k3 d9 k3 e1, PS) | 58 | –
TAAGATGTCCAGGCAT (sugars k3 d10 k3, PS) | 17 | –

Sequence | target mRNA inhibition (1 µM) [%] | also measured
TAAGCAGAATTGTGAA (sugars k3 d1 m1 d8 k3, PS) | 26 | –
TAAGCAGAATTGTGAA (sugars kkdddddddddkekek, PS) | 29 | –
TAAGCTGAGAGTTCTA (sugars k3 d9 k3 e1, PS) | 48 | –
TAAGTGTAAGAGACAT (sugars k3 d10 k3, PS) | 63 | –
TAATAATGGGCAGAGC (sugars k3 d10 k3, PS) | 30 | –
TAATACATTAGCAAGC (sugars k3 d9 k3 e1, PS) | 35 | –
TAATATTGAGGCACTG (sugars k3 d10 k3, PS) | 33 | –
TAATGGTAAACTGTAT (sugars k3 d10 k3, PS) | 32 | –
TAATTACAACCTGGTT (sugars k3 d10 k3, PS) | 52 | –
TAATTTTTGAGCCTAA (sugars k3 d10 k3, PS) | 41 | –
TACACTAATATTGAGG (sugars k3 d10 k3, PS) | 30 | –
TACACTGACAACCCTT (sugars k3 d10 k3, PS) | 56 | –
TACAGATTGGAATGCT (sugars k3 d1 m1 d8 k3, PS) | 60 | –
TACAGATTGGAATGCT (sugars k3 d10 k3, PS) | 46 | –
TACAGTAGGCAGTTTC (sugars k3 d10 k3, PS) | 60 | –
TACATATCTTACTCTG (sugars k3 d10 k3, PS) | 40 | –
TACCACATACGCATGC (sugars k3 d10 k3, PS) | 33 | –
TACCTCTAAGTTAGCC (sugars k3 d9 k3 e1, PS) | 30 | –
TACCTCTAAGTTAGCC (sugars kkdddddddddkekek, PS) | 20 | –
TACGATGGAACAAAAA (sugars k3 d10 k3, PS) | 20 | –
TACTTGAACAGTCTTA (sugars kkdddddddddkekek, PS) | 60 | –
TAGAACACTTGCCTCA (sugars k3 d10 k3, PS) | 31 | –
TAGAACTCCCAACCCA (sugars k3 d10 k3, PS) | 44 | –
TAGAACTGTGTTGCTT (sugars k3 d10 k3, PS) | 78 | target mRNA inhibition (0.02 µM): 14%; target mRNA inhibition (0.078 µM): 27%; target mRNA inhibition (0.313 µM): 57%; target mRNA inhibition (1.25 µM): 78%; target mRNA inhibition (5 µM): 90%
TAGAATAGTCTTCAGC (sugars kkdddddddddkekek, PS) | 50 | –
TAGAGTCGGTCACCTT (sugars k3 d9 k3 e1, PS) | 59 | –

Source: the OligoGym collection
